Laboratory results as given in patent US20230013453A1, “RESVERATROL SKIN PREPARATION” (priority 2021, published 2023).

Experiment: specification test of 98% trans-resveratrol (FIG. 5): solubility
Type: physicochemical
Conditions: extracted or sieved 98% trans-resveratrol
Text: It may be in powder form and either white or light yellow in color. […] It is also devoid of any significant amounts of metals, bacteria or other adulterants or additives.

Oc1ccc(/C=C/c2cc(O)cc(O)c2)cc1 [trans-resveratrol]
solubility in ethanol: soluble in ethanol
